21 compounds from patent US11168086B2, “Methods of synthesizing pyrazine compounds” (Hoffmann-La Roche Inc., priority 2015, dated 2021) can be followed below.

The subject of the experiment is HBV. The experiment can be described thus: HBV inhibition assay: anti-HBV activity in vitro in HepG2.2.15 cells (extracellular HBV DNA by qPCR). The format is cell-based. Particulars: Hepatitis B virus, 120 h, five days after compound treatment, extracellular HBV DNA in culture supernatant by qPCR, concentration at which HBV replication is inhibited by 50%. The essentials:
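HepG2.2.15 cells (stably carrying HBV genome) treated with half-log serially diluted compounds at 0.5% DMSO final for five days. Extracellular HBV DNA in supernatant quantified by qPCR after Proteinase K digestion; EC50 is concentration giving 50% inhibition of replication.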
(Real-time PCR tracks product formation cycle by cycle.)
Broadly, the EC50 is the concentration that produces a half-maximal response. Low readings indicate a more potent agent, high ones a less potent agent. Take `C[C@H]1Cn2ncc(N3CCCC3=O)c2CN1C(=O)Nc1cc(F)c(F)c(C(F)F)c1` [Example 239, (6S)—N-[3-(difluoromethyl)-4,5-difluoro-phenyl]-6-methyl-3-(2-oxopyrrolidin-1-yl)-6,7-dihydro-4H-pyrazolo[1,5-a]pyrazine-5-carboxamide]: the EC50 stood at 38 nM. To `C[C@H]1Cn2ncc(N3CC(C#N)CC3=O)c2CN1C(=O)Nc1cc(F)c(F)c(F)c1` (stereo partly drawn) [Example 240, (6S)-3-(4-cyano-2-oxo-pyrrolidin-1-yl)-6-methyl-N-(3,4,5-trifluorophenyl)-6,7-dihydro-4H-pyrazolo[1,5-a]pyrazine-5-carboxamide] belongs 16 nM.

Take `C[C@H]1Cn2ncc(N3C[C@H](C#N)CC3=O)c2CN1C(=O)Nc1cc(F)c(F)c(F)c1` [Example 240-1, (6S)-3-[(4R)-4-cyano-2-oxo-pyrrolidin-1-yl]-6-methyl-N-(3,4,5-trifluorophenyl)-6,7-dihydro-4H-pyrazolo[1,5-a]pyrazine-5-carboxamide]: the EC50 is 55 nM. Compound `C[C@H]1Cn2ncc(N3C[C@@H](C#N)CC3=O)c2CN1C(=O)Nc1cc(F)c(F)c(F)c1` [Example 240-2, (6S)-3-[(4S)-4-cyano-2-oxo-pyrrolidin-1-yl]-6-methyl-N-(3,4,5-trifluorophenyl)-6,7-dihydro-4H-pyrazolo[1,5-a]pyrazine-5-carboxamide] returned an EC50 of 9 nM.

`C[C@H]1Cn2ncc(N3CC(C(F)(F)F)CC3=O)c2CN1C(=O)Nc1ccnc(C(F)F)c1` (stereo partly drawn) [Example 241, (6S)—N-[2-(difluoromethyl)-4-pyridyl]-6-methyl-3-[2-oxo-4-(trifluoromethyl)pyrrolidin-1-yl]-6,7-dihydro-4H-pyrazolo[1,5-a]pyrazine-5-carboxamide] showed an EC50 of 75 nM.

`CC1CN(c2cnn3c2CN(C(=O)Nc2cc(F)c(F)c(F)c2)[C@@H](C)C3)C(=O)CO1` (stereo partly drawn) [Example 243, (6S)-6-methyl-3-(2-methyl-5-oxo-morpholin-4-yl)-N-(3,4,5-trifluorophenyl)-6,7-dihydro-4H-pyrazolo[1,5-a]pyrazine-5-carboxamide] gave a concentration giving a half-maximal response (EC50) of 31 nM.

`C[C@H]1Cn2ncc(N3CC(C)(C)NC3=O)c2CN1C(=O)Nc1ccc(F)c(Cl)c1` [Example 245, (6S)—N-(3-chloro-4-fluoro-phenyl)-3-(4,4-dimethyl-2-oxo-imidazolidin-1-yl)-6-methyl-6,7-dihydro-4H-pyrazolo[1,5-a]pyrazine-5-carboxamide] displayed an EC50 of 53 nM.

Regarding `C[C@H]1Cn2ncc(N3CC(c4cnco4)CC3=O)c2CN1C(=O)Nc1cc(F)c(F)c(F)c1` (stereo partly drawn) [Example 247, (6S)-6-methyl-3-(4-oxazol-5-yl-2-oxo-pyrrolidin-1-yl)-N-(3,4,5-trifluorophenyl)-6,7-dihydro-4H-pyrazolo[1,5-a]pyrazine-5-carboxamide], the EC50 turned out to be 14 nM. With `C[C@H]1Cn2ncc(N3CN(S(C)(=O)=O)CC3=O)c2CN1C(=O)Nc1cc(F)c(F)c(F)c1` [Example 248, (6S)-6-methyl-3-(3-methylsulfonyl-5-oxo-imidazolidin-1-yl)-N-(3,4,5-trifluorophenyl)-6,7-dihydro-4H-pyrazolo[1,5-a]pyrazine-5-carboxamide], a half-maximal response (EC50) required 93 nM.

With `C[C@H]1Cn2ncc(N3CC(C)(C)OC3=O)c2CN1C(=O)Nc1cc(F)c(F)c(F)c1` [Example 250, (6S)-3-(5,5-dimethyl-2-oxo-oxazolidin-3-yl)-6-methyl-N-(3,4,5-trifluorophenyl)-6,7-dihydro-4H-pyrazolo[1,5-a]pyrazine-5-carboxamide], a half-maximal effect (EC50) was put at 21 nM. To `C[C@H]1[C@H](C)n2ncc(N3CCCC3=O)c2CN1C(=O)Nc1cc(F)c(F)c(F)c1` [Example 251, (6S,7S)-6,7-dimethyl-3-(2-oxopyrrolidin-1-yl)-N-(3,4,5-trifluorophenyl)-6,7-dihydro-4H-pyrazolo[1,5-a]pyrazine-5-carboxamide] belongs 45 nM; to `C[C@H]1Cn2ncc(N3CC4(CC4)CC3=O)c2CN1C(=O)Nc1cc(F)c(F)c(F)c1` [Example 252, (6S)-6-methyl-3-(6-oxo-5-azaspiro[2.4]heptan-5-yl)-N-(3,4,5-trifluorophenyl)-6,7-dihydro-4H-pyrazolo[1,5-a]pyrazine-5-carboxamide], 15 nM. To `C[C@H]1Cn2ncc(N3CC4CC4C3=O)c2CN1C(=O)Nc1cc(F)c(F)c(F)c1` (stereo partly drawn) [Example 253, (6S)-6-methyl-3-(2-oxo-3-azabicyclo[3.1.0]hexan-3-yl)-N-(3,4,5-trifluorophenyl)-6,7-dihydro-4H-pyrazolo[1,5-a]pyrazine-5-carboxamide] belongs 44 nM; to `CC1CC(=O)N(c2cnn3c2CN(C(=O)Nc2ccc(F)c(Cl)c2)[C@@H](C)C3)C1` (stereo partly drawn) [Example 254, (6S)—N-(3-chloro-4-fluoro-phenyl)-6-methyl-3-(4-methyl-2-oxo-pyrrolidin-1-yl)-6,7-dihydro-4H-pyrazolo[1,5-a]pyrazine-5-carboxamide], 39 nM. For the compound `C[C@H]1Cn2ncc(N3CC(C(F)(F)F)CC3=O)c2CN1C(=O)Nc1ccc(F)c(Cl)c1` (stereo partly drawn) [Example 255, (6S)—N-(3-chloro-4-fluoro-phenyl)-6-methyl-3-[2-oxo-4-(trifluoromethyl)pyrrolidin-1-yl]-6,7-dihydro-4H-pyrazolo[1,5-a]pyrazine-5-carboxamide], the EC50 turned out to be 28 nM. `C[C@H]1Cn2ncc(N3CCC(O)C3=O)c2CN1C(=O)Nc1ccc(F)c(Cl)c1` (stereo partly drawn) [Example 256, (6S)—N-(3-chloro-4-fluoro-phenyl)-3-(3-hydroxy-2-oxo-pyrrolidin-1-yl)-6-methyl-6,7-dihydro-4H-pyrazolo[1,5-a]pyrazine-5-carboxamide] returned an EC50 of 68 nM. With `C[C@H]1Cn2ncc(N3CC(C)(C)CC3=O)c2CN1C(=O)Nc1ccc(F)c(Cl)c1` [Example 257, (6S)—N-(3-chloro-4-fluoro-phenyl)-3-(4,4-dimethyl-2-oxo-pyrrolidin-1-yl)-6-methyl-6,7-dihydro-4H-pyrazolo[1,5-a]pyrazine-5-carboxamide], a half-maximal response (EC50) required 15 nM. The value for `C[C@H]1Cn2ncc(N3CC(C(F)(F)F)CC3=O)c2CN1C(=O)Nc1cc(F)c(F)c(F)c1` (stereo partly drawn) [Example 259, (6S)-6-methyl-3-[2-oxo-4-(trifluoromethyl)pyrrolidin-1-yl]-N-(3,4,5-trifluorophenyl)-6,7-dihydro-4H-pyrazolo[1,5-a]pyrazine-5-carboxamide] was 23 nM; that for `C[C@@H]1[C@H](C)N(C(=O)Nc2cc(F)c(F)c(F)c2)Cc2c(N3CCCC3=O)cnn21` [Example 261, (6S,7R)-6,7-dimethyl-3-(2-oxopyrrolidin-1-yl)-N-(3,4,5-trifluorophenyl)-6,7-dihydro-4H-pyrazolo[1,5-a]pyrazine-5-carboxamide] was 40 nM; that for `C[C@H]1Cn2ncc(N3CC[C@H](O)C3=O)c2CN1C(=O)Nc1cc(F)c(F)c(F)c1` [Example 262, (6S)-3-[(3S)-3-hydroxy-2-oxo-pyrrolidin-1-yl]-6-methyl-N-(3,4,5-trifluorophenyl)-6,7-dihydro-4H-pyrazolo[1,5-a]pyrazine-5-carboxamide] was 65 nM. As for `C[C@H]1Cn2ncc(N3CC(COc4ncccn4)CC3=O)c2CN1C(=O)Nc1cc(F)c(F)c(F)c1` (stereo partly drawn) [Example 267, (6S)-6-methyl-3-[2-oxo-4-(pyrimidin-2-yloxymethyl)pyrrolidin-1-yl]-N-(3,4,5-trifluorophenyl)-6,7-dihydro-4H-pyrazolo[1,5-a]pyrazine-5-carboxamide], the midpoint of the response, the EC50, lay at 39 nM.
